Data published in patent US20070015786A1, “Treatment of hot flashes, impulse control disorders and personality change due to a general medical condition” (Eli Lily and Company, priority 2003, published 2007).
“And” between values parts separate entries of the source, which are not always exact repeats. Equal values may be shown once.

Test system: ovariectomized Sprague-Dawley rats
Assay: Morphine withdrawal rat hot flush model (naloxone-induced tail skin temperature rise)
Type: in vivo
Details: for morphine withdrawal hot flush model responsive to agent: data not shown
Source text: Simpkins et al. ((1983) Life Sci. 32:1957-1966) first published morphine withdrawal in the rat as a putative model for hot flushes, based on observations highlighting the similarity of symptoms of gonadal steroid withdrawal to those of opioid withdrawal. Although less severe, the signs and symptoms associated with clinical hot flushes, or estrogen deficiency, in the rat parallel those produced by naloxone-precipitated withdrawal in morphine dependent rats, including: 1) an increase in tail skin temperature; 2) a surge in luteinizing hormone; and 3) an increase in heart rate. Each of these responses is associated with an increase in sympathetic outflow, which is a current mechanistic hypothesis for hot flushes.
In this example, a modification of the original procedure of Simpkins et al. (1983) is used, employing ovariectomized Sprague-Dawley rats. Animals at 60 days of age (or 200-225 grams) are ovariectomized, and allowed a 14-day rest period to insure surgical recovery and clearance of endogenous ovarian hormones. Test compound administration (po or sc) is initiated on day 14 post-ovariectomy in a volume of 1 ml/kg. Once daily administration of test compounds continues through the end of the experiment. On days 15 and 17 post-ovariectomy, the rats are lightly anesthetized with isoflurane and a single 75 mg morphine (free base) pellet is surgically implanted subcutaneously.
On day 21 post-ovariectomy, animals are given ketamine (80 mg/kg; IM) 2 hours after final administration of the test compound. Following induction of the anesthesia, rats are then placed in individual plexiglass cages and temperature sensitive probes are applied to the dorsal side of the tail base. Temperature monitoring is initiated 30 minutes after administration of ketamine, and is recorded every 15 seconds for a 1-hr period. To induce morphine withdrawal, 1 mg/kg naloxone is given subcutaneously 15 minutes after start of temperature monitoring. A sharp rise in tail skin temperature typically occurs within 5 minutes post-naloxone injection, and two quantitative endpoints are made: 1) tail skin temperature at 15 minutes post-naloxone, and 2) area under the temperature response curve for the 45 minute post-naloxone measurement period.
Ethinyl estradiol is dosed orally at 0.3 mg/kg as a positive control. […] Using area under the curve measurements, the response induced by each compound is calculated as a percent inhibition of temperature increase versus the morphine control.

**Q.** With `C#C[C@]1(O)CC[C@H]2[C@@H]3[C@H](C)CC4=C(CCC(=O)C4)[C@H]3CC[C@@]21C` [tibolone] as the compound, how does the “morphine withdrawal hot flush model responsive to agent” value read?
**A.** Its value is “responsive”.

**Q.** Which “% Inhibition vs. Morphine Control” value (PO, 10 mg/kg, area under the tail skin temperature curve, 45 min post-naloxone) does the source give for `CNCCCN1c2ccccc2CCc2ccccc21` [Desipramine, desipramine] here?
**A.** The value was 101%.

**Q.** And the “% Inhibition vs. Morphine Control” value (PO, 10 mg/kg, area under the tail skin temperature curve, 45 min post-naloxone, listed as desipramine)?
**A.** Its value is 101%.

**Q.** `Clc1cccc(Cl)c1N=C1NCCN1` [clonidine] was tested. Which “morphine withdrawal hot flush model responsive to agent” value did it give?
**A.** Its value is “responsive”.

**Q.** How did the “morphine withdrawal hot flush model responsive to agent” value turn out when medroxyprogesterone was run?
**A.** Its value is “responsive”.

**Q.** For `CCOc1ccccc1OC(c1ccccc1)C1CNCCO1` (racemic) [reboxetine], which “% Inhibition vs. Morphine Control” value (rat, in vivo, sc, 5 mg/kg) is on record?
**A.** Its value is 94%.

**Q.** Which results are given for `C#C[C@]1(O)CC[C@H]2[C@@H]3CCc4cc(O)ccc4[C@H]3CC[C@@]21C` [Ethinyl Estradiol, Ethinyl estradiol]?
**A.** % Inhibition vs. Morphine Control (PO, 0.3 mg/kg, area under the tail skin temperature curve, 45 min post-naloxone): 89% and 73% and 90%; % Inhibition vs. Morphine Control (PO, 0.3 mg/kg, area under the tail skin temperature curve, 45 min post-naloxone, listed as Ethinyl estradiol): 70-90%

**Q.** How did the “% Inhibition vs. Morphine Control” value (rat, in vivo, sc, 5 mg/kg) turn out when `CCOc1ccccc1OC(c1ccccc1)C1CNCCO1` [(R,S)-Reboxetine, (R,S)-reboxetine] was run?
**A.** The value was 94%.
